Source: patent publication US20200368322A1, “METHODS OF IDENTIFYING AND USING AGENTS FOR TREATING DISEASES ASSOCIATED WITH INTESTINAL BARRIER DYSFUNCTION” (Yeda Research and Development Co. Ltd., priority 2018, published 2020)

Experiments:
[1] = test system: intestinal epithelial cells; experiment: RNA-sequencing of purified intestinal epithelial cells; type: in vivo, mouse; details: STZ-treated mice, 2-DG administration
Description: Intestinal tissue was excised from mice, thoroughly rinsed with ice-cold PBS to clean the tissue from fecal matter, and opened longitudinally. The tissue was then cut into pieces of 1 cm length and incubated in HBSS containing 2 mM EDTA and 1 mM DTT at 37° C. for 30 mins while shaking at 130 rpm. Epithelial cells were collected, filtered, centrifuged, and subsequently stained with anti-EpCAM and anti-CD45 antibodies (Biolegend) for 30 mins on ice. Cells were then washed, resuspended and sorted into lysis/binding buffer (Life Technologies) using a FACS-FUSION cell sorter (BD).
10^4 cells from each population were sorted into 80 μl of lysis/binding buffer (Life Technologies). mRNA was captured with 12 μl of Dynabeads oligo(dT) (Life Technologies), washed, and eluted at 70° C. with 10 μl of 10 mM Tris-Cl (pH 7.5). A derivation of MARS-seq was used as described (51). An average of 1 million reads was sequenced per library (Illumina NextSeq). The reads were aligned to the mouse reference genome (NCBI 37, mm9) using TopHat v2.0.10 (52) with default parameters. Expression levels were calculated and normalized using ESAT software (garberlabdotumassmeddotedu/software/esat). Duplicate reads were filtered if they aligned to the same base and had identical UMIs. […]

[2] = test system: Caco-2 cells; experiment: In vitro barrier assessment: ZO-1 staining and junction tortuosity of Caco-2 cells treated with glucose; type: cell-based; details: glucose plus 2-DG
Description: Caco-2 cells were purchased from ATCC. Cells were routinely grown in regular tissue culture medium (DMEM, 10% FCS, penicillin/streptomycin, GlutaMAX, 1 g/l glucose). For experiments, cells were seeded onto 96-well glass-bottom plates coated with fibronectin 25 μg/ml 70 000 cells/well and allowed to grow for 48 hours to form confluent monolayer before treatment with indicated concentration of glucose for indicated time period. […] Tight junctions labeling was performed with primary anti-ZO-1 mouse monoclonal antibodies (BD Transduction Laboratories) 1.25 μg/ml and secondary Alexa Fluor 488 goat anti-mouse antibodies (Invitrogen) 10 μg/ml. […] Cell images were segmented using Morphological Segmentation ImageJ plug-in and junction tortuosity was calculated as a ratio between junction length and Euclidian distance between its ends.
Hyperglycemia Reprograms Intestinal Epithelial Cells To determine whether glucose acted directly on intestinal epithelial cells to affect barrier function, an in vitro system of cultured intestinal epithelial (Caco-2) cells was used. […] Tight junction integrity was analyzed through automated high-throughput analysis of ZO-1 staining patterns. […] Global reprogramming of the epithelial transcriptome was detected in hyperglycemic mice (FIG. 41), in which more than 1,000 genes were differentially expressed compared to vehicle-treated controls (FIG. 4J). […]

[3] = test system: Citrobacter rodentium; experiment: Citrobacter rodentium infection (bioluminescence, tissue CFU), Example 1; type: in vivo, mouse
Description: (§1) To induce hyperglycemia, streptozotocin (STZ, Sigma-Aldrich) was diluted freshly in PBS and injected i.p. at 100 mg/kg at two consecutive days. Control mice were injected with PBS. Serum glucose measurements were performed using glucose strips (Perrigo). Hyperglycemic mice were used for further experimentation 2-3 weeks after STZ injection). For continuous insulin administration, ALZET osmotic pumps were used. Pumps were implanted subcutaneously in the back of the mice for 4 weeks. Insulin was delivered at 0.25 U/day. 2-deoxyglucose (2-DG) was injected i.p. twice daily at 5 mg per injection as previously described (47). Injections were performed for 10 consecutive days. Leptin antagonist was administered daily by intraperitoneal injection of 25 mg/kg as previously described (18).
Mice were infected by oral gavage with 200 μl of an overnight culture of LB containing approximately 1×10^9 colony-forming units (CFU) of a kanamycin-resistant, luciferase-expressing derivative of C. rodentium DBS100 (ICC180) as previously described (16). For in vivo bioluminescent imaging, mice were anesthetized with Ketamine/Xylazine. Bioluminescence was quantified using an IVIS2000 instrument and Living Image software (Perkin Elmer). For ex vivo luminescence analysis, colons were resected, extensively washed from all fecal matter and immediately imaged. For CFU counts, tissues were collected, weighed and homogenized in 1 ml of sterile PBS. Tissue homogenates were serially diluted in PBS and plated on to LB kanamycin plates, incubated overnight at 37° C., and bacterial colonies were enumerated the following day, normalizing them to the tissue weight.

[4] = test system: microbial pattern recognition receptor (PRR) ligands; experiment: Quantification of microbial products at systemic sites (PRR reporter cell lines); type: in vivo, mouse; details: STZ-treated mice given the agent (insulin 0.25 U per day; 2-DG i.p. twice daily 5 mg)
Description: as §1, with “(18). The following PRR reporter cell lines were obtained from Invivogen (HEK-Blue TLR and NLR reporter cell lines): TLR2, TLR3, TLR4, TLR5, TLR7, TLR9, NOD1, NOD2. Extracts from spleen, liver, and serum were homogenized and added to reporter cell lines incubated with HEK-Blue detection medium (Invivogen) according to the manufacturer's instructions.” for “(18).”

[5] = test system: Citrobacter rodentium; type: in vivo, mouse; details: putrescine oral gavage 200 mg/kg twice daily
Description: (§2) For putrescine treatment, mice received putrescine by oral gavage with a dose of 200 mg/kg twice daily for 10 days prior to and during DSS treatment or Citrobacter rodentium infection.
A kanamycin-resistant and luciferase-expressing derivative of Citrobacter rodentium DBS100 (ICC180) was used for infection as previously described (Thaiss et al., Science. 2018 Mar. 23; 359(6382):1376-1383).
Mice were infected with 200 μl solution containing approximately 1×10^9 colony-forming units (CFU) of overnight cultured bacteria by oral gavage. Infection was monitored by enumerating stool CFU and measuring abdominal bioluminescent. For in vivo bioluminescent imaging, mice were anesthetized and bioluminescence was measured using an IVIS2000 instrument and Living Image software (Perkin Elmer). For ex vivo luminescence quantification, the whole colons were dissected, extensively washed from all luminal contents, longitudinally cut open and immediately imaged. For CFU counts, stool or tissues were collected, weighed and homogenized in sterile phosphate buffered saline (PBS−/−). Homogenates were then serially diluted in PBS−/− and plated on LB kanamycin plates, incubated overnight at 37° C. Bacterial CFUs were counted the next day, normalizing them to the stool or tissue weight.

[6] = test system: tight junctions of Caco2 cells; experiment: Caco2 tight junction morphology (cingulin or ZO-1 staining, tortuosity); type: cell-based, human
Description: (§3) CaCo-2 cells were purchased from ATCC. Cells were routinely grown in regular tissue culture medium (DMEM, 10% FCS, penicillin/streptomycin, GlutaMAX). For experiments with differing glucose concentrations, cells were routinely cultured in low-glucose DMEM (1 g/l glucose). Cells were seeded onto 96-well glass-bottom plates coated with either fibronectin or collagen 70 000 cells/well and allowed to grow for 24 hours to form confluent monolayer before indicated treatments.
(§4) For high resolution images of manually selected representative fields, a DeltaVision wide field fluorescent microscope (GE Healthcare) equipped with 40×UPlanFLN or 60×/1.42 PlanApo N oil objective (Olympus) was used. For multi-well plate scanning, the following automated imaging stations were used: DeltaVision microscope with plate scanning regiment, Hermes imaging station (IDEA bio-Medical) or ImagExpress microXL imaging station (Molecular Devices) equipped by 40× air objectives. In all cases in order to cover the curvature of apical surface of epithelial monolayer 5 μm thick z-stack was acquired around the tight junction plane (identified by best focus algorithm) and resulting image was generated as a maximum projection of all optical sections.
Cell images were segmented using Morphological Segmentation ImageJ plug-in and junction tortuosity was calculated as a ratio between junction length and Euclidian distance between its ends.

[7] = test system: mice with DSS-induced colitis; details: putrescine oral gavage 200 mg/kg twice daily; 2% DSS in drinking water
Description: as §2

[8] = test system: focal adhesions of Caco2 cells; experiment: Caco2 cell-matrix focal adhesions (paxillin staining); type: cell-based, human; details: 10 mM acetyl-proline, 1 mM putrescine, 10 mM histamine, 5 mM spermine
Description: as §3, §4

Row | SMILES | transcriptional reprogramming of the epithelium [1] | glucose-induced barrier aberrations in vitro [2] | detectable pathogen load in the mesenteric lymph nodes, spleens and livers ([3]; C. rodentium-infected db/db mice, 2-DG treatment) | bacterial growth in the intestinal lumen ([3]; STZ-treated C. rodentium-infected mice, 2-DG treatment) | enhanced C. rodentium growth and pathogenic translocation / host defense against C. rodentium ([3]; STZ-treated mice given the agent (insulin 0.25 U per day; 2-DG i.p. twice daily 5 mg)) | systemic dissemination of microbial products [4] | effect in mice with C. rodentium infection [5] | recovery of the TJs after washout ([6]; CaCo2 cells pretreated 24 hrs with disruptor, then regular culture medium for 24 hours) | TJ structure after disruptor treatment ([6]; CaCo2 cells, 24 hrs, LPS 300 ng/ml, Histamine 10 mM, putrescine 1 mM) | effect on tight junctions in metabolite screen ([6]; Caco2 cells) | tight junction morphology ([6]; Caco2 cells, 10 mM acetyl-proline, 1 mM putrescine, 10 mM histamine, 5 mM spermine) | effect in mice with DSS-induced colitis [7] | focal adhesions size [8]
1 | O=CC[C@@H](O)[C@H](O)[C@H](O)CO [2-DG, 2-deoxyglucose] | blocked transcriptional reprogramming in STZ-treated mice | rescued glucose-induced barrier aberrations in vitro in a dose-dependent manner | strongly reduced | unaffected | restored host defense against C. rodentium | prevented the systemic dissemination of microbial products | – | – | – | – | – | – | –
2 | NCCCCN [putrescine] | – | – | – | – | – | – | disruptive effect | partial recovery | pronounced TJ disruption | Disruption | distortion of tight junction morphology | disruptive effect | increase of focal adhesions size
